{
  "source": "patent US20260069693A1",
  "about": "“UROLITHINS AND T-CELL MEDIATED IMMUNE RESPONSE” (priority 2022, published 2026)",
  "key": {"APTK-induced tumors": {"test_system": "APTK-induced tumors", "test": "subcutaneous APTK tumors in Pink1-/- mice, UA diet", "assay_type": "in vivo", "description": "UA activates mitophagy in myocytes and hippocampal neurons via a Pink1/Parkin mediated stress-response (D'Amico et al., 2021). […] Moreover, UA stabilized Parkin protein expression (FIG. 4G). To functionally confirm the dependence of UA induced TSCM formation on Pink1/Parkin mediated mitophagy, the inventors activated Pink1^−/− T cells in the presence or absence of UA. Loss of Pink1 prevented the UA-induced lysosome formation as well as the decrease in mitochondrial content (FIG. 4H, I).\nTumors were minced and digested with Tumor & Tissue Dissociation Reagent (BD Horizon) for 30 min. The remaining organ pieces were filtered through a 70 μm cell strainer. Cells were then washed with PBS 1% BSA and 2 mM EDTA. Immune cells were enriched on a 30%/40%/75% Percoll gradient after a 1700 rpm 17 min centrifugation. Then, tumor immune filtrates or activated T cells were stained with Fixable Viability Dye-eF780 (65-0865-14; eBioscience), αCD45-FITC (30-F11; 11-0451-85; eBioscience), αCD11b-BV650 (M1/70; 56340; BD) α-CD11C-BV785 (HL3; 563735; BD), αLy6G-BV605 (53-6.7; 563005; BD), αLy6C-AF700 (HK1.4; 128024; Biolegend), αF4/80-PE (BM8; 12-4801-82, eBioscience), αPD-L1-PECy7 (MIH5; 25-5982-80, eBioscience); or with Fixable Viability Dye-eF780 (ebioscience), αCD45-BV786 (30-F11; 564225; BD), αCD4-BUV496 (GK1.5; 564667; BD), αCD8-BV605 (100744; Biolegend), αPD1-APC (J43; 17-9985-82; eBioscience), αTIM-3-PECy7 (RMT3-23; 119715; Biolegend), αCTLA4-PE (UC10-4B9; 106305; Biolegend) and αLag3-BV421 (C9B7W; 125221, Biolegend); or with Fixable Viability Dye-eF780 (eBioscience), αCD4-FITC (H129.19; 553650; BD), αCD8-APC (53-6.7; 17-0081-83; eBioscience), αCD44-AF400 (IM7; 103026; Biolegend), αCD62L-BV785 (MEL-14; 104440; Biolegend), αSca-1-PerCP-Cy5.5 (D7; 45-5981-82; eBioscience), αCD95-PE (Jo2; 554258; BD); or with Fixable Viability Dye-eF780 (eBioscience), αCD8-BV650 (53-6.7; 563234; BD), αCD4-BUV496 (GK1.5; 564667; BD), αCD127-APC (A7R34; 17-1271-82; eBioscience), αCD95-FITC (SA367H8; 152605; Biolegend), αCD44-AF400 (IM7; 103026; Biolegend), αCD62L-BV785 (MEL-14; 104440; Biolegend), αSca-1-PerCP-Cy5.5 (D7; 45-5981-82; eBioscience) followed by intracellular staining of αTCF1-PE (S33-966; 564217; BD), or PGC-1α (sc-518025; D-5; santa cruz), or αCyclinD1 (MA5-28534, DCS-6; Invitrogen) with transcription factor buffer set kit (BD Biosciences). To study cytokine expression, tumor immune infiltrates were stimulated ex vivo with 20 ng/ml PMA and 1 μg/ml Ionomycin (Sigma) for 3 h in T cell activation medium with Brefeldin A (Biolegend). For T cell in vitro activation experiments over several days, Brefeldin A was added to the medium for the last 3 hours."}, "CEA-CAR T cells": {"test_system": "CEA-CAR T cells", "test": "UA applied to previously frozen CEA-CAR T cells", "assay_type": "cell-based, human", "settings": "previously frozen CEA-specific CAR-T cells, UA for three days"}, "[1]": {"test_system": "FoxP3+ T regulatory cells", "settings": "cited from earlier work"}},
  "data": [
    {"smiles": "O=c1oc2cc(O)ccc2c2ccc(O)cc12", "note": "[UA, Urolithin A]", "values": [
      {"measurement": "tumor growth (tumor suppressive effect of UA)", "setting": "APTK-induced tumors; Pink1 deletion, UA-containing vs control diet", "result": "abrogated the tumor suppressive effect of UA"},
      {"measurement": "TCF-1 expression in CD8+ TIL", "setting": "APTK-induced tumors; UA vs control diet", "result": "did not exhibit differences"},
      {"measurement": "exhaustion markers in CD8+ TIL", "setting": "APTK-induced tumors; UA vs control diet", "result": "did not exhibit differences"},
      {"measurement": "ex vivo cytokine release of CD8+ TIL", "setting": "APTK-induced tumors; UA vs control diet, PMA/Ionomycin", "result": "did not exhibit differences"},
      {"measurement": "CAR TSCM formation", "setting": "CEA-CAR T cells", "result": "strongly enhanced"},
      {"measurement": "FoxP3+ T regulatory cells", "setting": "[1]", "result": "expanding"}
    ]}
  ]
}
